Measured values reported in publication PMC5688144, “Assay interference and off-target liabilities of reported histone acetyltransferase inhibitors” (Nature Communications, 2017).
Entries after “also recorded” stand apart in the source; their conditions may differ.

Key:
p300 = target: T1, p300 (Homo sapiens, UniProt Q09472); settings: read-out: IC50 (µM), p300; original report; 22 (Supplementary References); cited from earlier work
T1 construct: Reaction Biology Corporation (assays run by this contract lab)
T1 sequence (Q09472 whole entry, species assumed): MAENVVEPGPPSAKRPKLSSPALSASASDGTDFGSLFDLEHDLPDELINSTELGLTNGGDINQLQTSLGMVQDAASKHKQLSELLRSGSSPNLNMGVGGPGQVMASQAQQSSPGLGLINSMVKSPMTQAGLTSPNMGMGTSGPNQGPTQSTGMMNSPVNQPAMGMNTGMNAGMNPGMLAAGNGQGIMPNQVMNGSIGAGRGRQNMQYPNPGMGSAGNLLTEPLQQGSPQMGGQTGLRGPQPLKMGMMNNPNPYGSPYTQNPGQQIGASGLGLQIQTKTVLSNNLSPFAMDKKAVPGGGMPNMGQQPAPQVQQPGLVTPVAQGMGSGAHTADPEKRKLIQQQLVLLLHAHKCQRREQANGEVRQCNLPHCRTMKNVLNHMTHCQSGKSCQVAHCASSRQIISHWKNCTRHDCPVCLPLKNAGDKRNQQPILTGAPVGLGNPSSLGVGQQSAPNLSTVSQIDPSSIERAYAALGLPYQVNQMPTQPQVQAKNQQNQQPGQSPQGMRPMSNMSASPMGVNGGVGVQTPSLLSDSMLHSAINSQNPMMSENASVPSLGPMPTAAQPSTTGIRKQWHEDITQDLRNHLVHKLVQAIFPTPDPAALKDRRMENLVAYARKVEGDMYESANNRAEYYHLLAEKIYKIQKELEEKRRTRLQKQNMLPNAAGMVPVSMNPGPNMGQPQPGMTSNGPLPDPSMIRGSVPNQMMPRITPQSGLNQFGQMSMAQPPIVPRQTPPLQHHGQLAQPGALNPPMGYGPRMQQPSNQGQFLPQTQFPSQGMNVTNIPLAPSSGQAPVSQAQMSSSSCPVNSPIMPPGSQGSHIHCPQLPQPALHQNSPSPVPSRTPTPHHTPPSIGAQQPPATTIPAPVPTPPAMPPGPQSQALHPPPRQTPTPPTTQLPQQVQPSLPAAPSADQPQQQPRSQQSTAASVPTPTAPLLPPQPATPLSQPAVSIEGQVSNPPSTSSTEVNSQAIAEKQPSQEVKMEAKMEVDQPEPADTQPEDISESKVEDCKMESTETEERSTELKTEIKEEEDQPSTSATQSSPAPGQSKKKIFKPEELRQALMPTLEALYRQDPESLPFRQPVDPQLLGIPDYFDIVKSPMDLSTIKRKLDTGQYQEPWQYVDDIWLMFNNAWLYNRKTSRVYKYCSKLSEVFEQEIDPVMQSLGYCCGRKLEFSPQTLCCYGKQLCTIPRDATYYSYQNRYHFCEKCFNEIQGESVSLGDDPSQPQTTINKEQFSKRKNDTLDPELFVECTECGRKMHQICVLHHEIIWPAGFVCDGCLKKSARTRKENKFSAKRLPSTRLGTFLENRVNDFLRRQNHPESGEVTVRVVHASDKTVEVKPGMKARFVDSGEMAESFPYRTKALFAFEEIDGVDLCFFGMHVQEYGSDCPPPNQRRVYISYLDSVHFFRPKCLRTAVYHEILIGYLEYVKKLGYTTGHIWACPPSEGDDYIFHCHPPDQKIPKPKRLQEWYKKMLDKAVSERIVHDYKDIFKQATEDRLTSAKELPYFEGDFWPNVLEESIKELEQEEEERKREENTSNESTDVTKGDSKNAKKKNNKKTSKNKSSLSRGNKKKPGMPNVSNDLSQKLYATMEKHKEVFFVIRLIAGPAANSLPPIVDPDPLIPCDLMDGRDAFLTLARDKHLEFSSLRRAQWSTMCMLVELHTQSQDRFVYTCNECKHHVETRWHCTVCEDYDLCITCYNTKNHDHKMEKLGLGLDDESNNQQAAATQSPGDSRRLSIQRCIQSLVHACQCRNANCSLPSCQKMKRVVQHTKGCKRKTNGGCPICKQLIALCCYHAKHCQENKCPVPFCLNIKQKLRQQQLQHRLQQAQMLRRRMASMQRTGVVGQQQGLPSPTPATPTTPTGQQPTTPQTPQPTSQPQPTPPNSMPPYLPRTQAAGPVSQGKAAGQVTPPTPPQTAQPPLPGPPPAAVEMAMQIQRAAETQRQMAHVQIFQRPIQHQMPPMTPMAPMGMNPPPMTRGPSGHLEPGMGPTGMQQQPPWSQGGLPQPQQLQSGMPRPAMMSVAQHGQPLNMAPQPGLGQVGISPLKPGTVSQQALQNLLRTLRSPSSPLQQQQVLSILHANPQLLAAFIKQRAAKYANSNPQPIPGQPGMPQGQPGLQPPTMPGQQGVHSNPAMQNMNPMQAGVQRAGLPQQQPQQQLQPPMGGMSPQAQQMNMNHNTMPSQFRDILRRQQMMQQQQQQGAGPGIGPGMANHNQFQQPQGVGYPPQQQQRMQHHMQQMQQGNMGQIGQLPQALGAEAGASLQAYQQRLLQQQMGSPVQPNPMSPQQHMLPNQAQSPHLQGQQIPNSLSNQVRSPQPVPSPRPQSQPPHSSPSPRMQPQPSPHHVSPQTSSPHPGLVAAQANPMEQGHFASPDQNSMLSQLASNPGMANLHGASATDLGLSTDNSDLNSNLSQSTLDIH

KAT5 = test system: KAT5; parameters: method as in ref 22 (Supplementary References); settings: original report; ref 22 (Supplementary References); cited from earlier work
MYST4 = settings: original report; ref 22 (Supplementary References); cited from earlier work
MOF = test system: MOF; parameters: method as in ref 19, 26 (Supplementary References); settings: original report; 26 (Supplementary References); cited from earlier work
200 kinases = assay: Expanded kinase profile (Cerep/Eurofins); type: biochemical; settings: 10 μM compound
Protocol: Assays were performed using either homogeneous time-resolved fluorescence or LANCE® time-resolved-FRET formats (see cerep.fr for additional details). […] Reference control compounds were included in each assay.

[1] = test system: panel of proteases, kinases, and phosphatases; assay: Pilot selectivity panel (Reaction Biology); type: biochemical; settings: 10 µM compound
Protocol: (§1) Selectivity profiles vs. HATs, HDACs, SIRTs, HMTs, proteases, kinases, and phosphatases were performed by Reaction Biology Corporation (Malvern, PA; Fig. 3 and Supplementary Fig. 3). Percent activity was normalized to DMSO-only controls. Reference control compounds were included in each assay.
(§2) Relevant reaction procedures for each target class are briefly summarized (see reactionbiology.com for additional details). HATs: reaction buffer 50 mM Tris–HCl, pH 8.0, 50 mM NaCl, 0.1 mM EDTA, ± 1 mM DTT, 1 mM PMSF, 1% DMSO; substrate [^3H]-acetyl-CoA; reaction time 1 h; end-point measurement. […] HMTs: reaction buffer 50 mM Tris–HCl, pH 8.0, 0.01% Brij35, 1 mM EDTA, 1 mM DTT, 1 mM PMSF, 1% DMSO (EZH2); reaction buffer 50 mM Tris–HCl, pH 7.5, 5 mM EDTA, 0.01% Brij35, 5 mM DTT, 0.1 mM PMSF, 5% glycerol, 1% DMSO; 50 mM Tris–HCl, pH 8.5, 5 mM MgCl2, 50 mM NaCl, 0.01 Brij35, 1 mM DTT, 1% DMSO (G9a); methyl donor 1 μM S-Adenosyl-L-[methyl-^3H]-methionine; substrate 5 μM histone proteins or 0.05 mg mL^−1 nucleosomes; pre-incubation time 10–15 min; reaction time 0.5–1 h; end-point measurement. Caspases: reaction buffer 50 mM HEPES, pH 7.4, 1 M citrate, 100 mM NaCl, 0.01% CHAPS, 0.1 mM EDTA, 10 mM DTT; fluorogenic peptide substrate; pre-incubation time 10 min; reaction time 2 h; time-course measurement. Kinases: reaction buffer 20 mM HEPES, pH 7.5, 10 mM MgCl2, 1 mM EGTA, 0.02% Brij35, 0.02 mg mL^−1 BSA, 0.1 mM Na3VO4, 2 mM DTT, 1% DMSO; substrate [^33P]-ATP; reaction time 2 h; end-point measurement.

SAS = test system: SAS; parameters: method as in ref 5 (Supplementary References); settings: @ 10 µM; ref 5 (Supplementary References); cited from earlier work
MOZ = settings: @ 10 µM; ref 5 (Supplementary References); cited from earlier work
PCAF = target: T2, PCAF (Homo sapiens, UniProt Q92831); assay: PCAF activity in presence and absence of DTT; type: biochemical; settings: 10 and 100 μM compound
T2 construct: Reaction Biology Corporation (assays run by this contract lab)
T2 sequence (Q92831 whole entry, species assumed): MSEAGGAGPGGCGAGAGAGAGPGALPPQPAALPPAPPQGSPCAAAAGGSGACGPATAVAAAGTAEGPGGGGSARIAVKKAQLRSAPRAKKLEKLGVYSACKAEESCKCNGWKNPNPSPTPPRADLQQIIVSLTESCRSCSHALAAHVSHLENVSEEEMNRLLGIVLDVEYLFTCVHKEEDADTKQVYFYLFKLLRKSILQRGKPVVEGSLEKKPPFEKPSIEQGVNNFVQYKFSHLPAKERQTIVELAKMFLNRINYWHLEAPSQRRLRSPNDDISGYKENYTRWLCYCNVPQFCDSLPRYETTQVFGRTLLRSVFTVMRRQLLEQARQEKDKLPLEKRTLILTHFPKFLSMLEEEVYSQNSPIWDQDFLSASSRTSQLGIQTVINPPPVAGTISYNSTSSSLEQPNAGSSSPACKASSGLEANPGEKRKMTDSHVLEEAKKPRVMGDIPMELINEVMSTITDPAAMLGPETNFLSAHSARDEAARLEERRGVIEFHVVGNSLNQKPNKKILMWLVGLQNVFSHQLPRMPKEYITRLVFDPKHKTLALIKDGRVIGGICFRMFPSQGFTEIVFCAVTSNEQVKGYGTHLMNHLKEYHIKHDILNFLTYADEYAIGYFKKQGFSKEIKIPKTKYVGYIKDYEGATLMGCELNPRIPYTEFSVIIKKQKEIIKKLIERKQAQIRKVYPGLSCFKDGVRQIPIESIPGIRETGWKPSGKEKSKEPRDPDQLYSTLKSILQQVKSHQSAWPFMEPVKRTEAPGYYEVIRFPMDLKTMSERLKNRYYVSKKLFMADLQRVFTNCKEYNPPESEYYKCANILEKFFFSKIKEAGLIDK
Protocol: as §1
as §2, with “Kinases: reaction buffer 20 mM HEPES, pH 7.5, 10 mM MgCl2, 1 mM EGTA, 0.02% Brij35, 0.02 mg mL^−1 BSA, 0.1 mM Na3VO4, 2 mM DTT, 1% DMSO; substrate [^33P]-ATP; reaction time 2 h; end-point measurement.” left out

HEK293T and MCF7 cells = assay: Cell proliferation by cell confluence; type: cell-based; settings: 30 µM compound; MCF7 and HEK293T cells
Protocol: Cells were cultured in DMEM supplemented with 10% fetal bovine serum (Winsent), penicillin (100 U mL^−1), and streptomycin (100 µg mL^−1). Compounds dissolved in DMSO or matching DMSO-only controls were added to cells for indicated times. Compound effects in cells were determined as described[67] and are outlined below.
(§3) For cell growth analyses, cells were seeded in 96-well plates, treated with compounds for the indicated times, and monitored over time in a live cell Incucyte™ ZOOM imager (Essen Biosciences). To label apoptotic and dead cells, caspase 3/7 activatable DEVD recognition motif NucView™ 488 DNA intercalating dye (1:1000 dilution, Essen Biosciences) and SYTOX™ green nucleic acid stain (1:1000 dilution, Invitrogen) were used respectively, following manufacturer instructions.

[2] = test system: caspase 3/7 activity in HEK293T and MCF7 cells; assay: Live-cell caspase 3/7 activity; type: cell-based; settings: 24 h after compound addition
Protocol: as §3

In the case of `Cc1cc2c(C(C)C)c(O)c(O)c(C=O)c2c(O)c1-c1c(C)cc2c(C(C)C)c(O)c(O)c(C=O)c2c1O` [Compound 16, Gossypol], the IC50 (p300) is given as roughly 25 µM.
For `COc1ccc(/C(Cl)=C(/C=O)c2ccc(OC)cc2)cc1` [Compound 18, Windorphen], the IC50 (KAT5) is listed as greater than 100 µM and the IC50 (MYST4) is listed as greater than 100 µM.
In the case of `CCCCCCCc1ccc(CCc2cccc(O)c2C(=O)O)cc1` [Compound 15, MG 149], the IC50 (MOF) is listed as 47 µM.
With `CC1=NN(c2ccc(C(=O)O)cc2)C(=O)/C1=C/c1ccc(-c2cc(C)c(C)cc2[N+](=O)[O-])o1` [Compound 1, C646] the “kinases with >50% inhibition” value (200 kinases) was 26 out of 200, the “inhibition against the tested kinases and phosphatases” value [1] was “low levels of inhibition” and the “proteases with > 50% inhibition” value ([1]; 17 proteases) was 7 out of 17. For the same compound, the “% inhibition, SAS” value (SAS) was less than 10% and the “% inhibition, MOZ” value (MOZ) was less than 10%.
With `O=c1c2cccnc2sn1Cc1ccc(C(F)(F)F)cc1` [Compound 3, PU141] the “inhibition of PCAF in the absence of DTT compared with DTT present” value (PCAF) was “notable exceptions” and the “activity vs. most of the targets tested” value ([1]; proteases, kinases, phosphatases) was “little activity”.
In the case of Plumbagin [Compound 8], the “cell death by cell confluence studies” value (HEK293T and MCF7 cells) is reported as “causes cell death”.
In the case of `O=C1/C(=C/c2ccc(O)c(Br)c2)CCC/C1=C\c1ccc(O)c(Br)c1` [Compound 12, HAT inhibitor II], the “caspase 3/7 activity” value [2] is reported as “induce; also recorded: dose-dependent increases”.
For `COc1ccc(S(=O)(=O)ON=C2C=C(C)C(=O)C(C)=C2)cc1` [Compound 5, L002], the “inhibition of PCAF in the absence of DTT compared with DTT present” value (PCAF) was “notable exceptions”.
